Columns and labels:
H22 cells = test: Antitumor effect in H22 mouse hepatocellular carcinoma subcutaneous xenograft model; format: in vivo, BALB/c mice; details: oral, 2 weeks
4T1 cells = test: Antitumor effect in 4T1 mouse mammary carcinoma xenograft model; format: in vivo, BALB/c mice; details: oral, 3 weeks
Method: 4T1 cells were cultured and expanded in vitro. […] A 100 μL aliquot of this suspension was injected subcutaneously into the left forelimb axilla of female BALB/c mice. […] Daily oral administration was performed for 3 weeks. During the treatment period, mouse body weight and tumor diameter were measured daily. At the end of the experiment, mice were euthanized by cervical dislocation, and tumors were removed for weighing. Tumor volume (TV) was calculated using the formula: TV=½×a×b^2, where a represents the longest diameter of the tumor and b represents the shortest diameter.

Hepa1-6 cells = test: Antitumor effect in Hepa1-6 mouse hepatocellular carcinoma subcutaneous xenograft model; format: in vivo, C57BL/6 mice; details: 40 μmol/kg/d oral, 2 weeks
[1] = Water solubility testing of compounds (HPLC); details: deionized water, 37 °C
T cells = test: Proportion of T cells in tumor and spleen of H22 xenograft mice (flow cytometry); format: in vivo, BALB/c mice
Method: Once all tumors were dissected, nail-sized tumor pieces were transferred to 1.5 mL Eppendorf tubes and minced with scissors. Transfer the minced tumor tissue suspension to a 15 mL centrifuge tube containing 3-5 mL of digestive enzymes (Collagenase IV 1 mg/mL, Hyaluronidase 1 mg/mL, DNase 120 U/mL). Incubate at 37° C. on a shaking incubator at 200 rpm for 1 hour. After digestion, pass the mixture through a 200-mesh sieve to obtain the tumor cell suspension. Centrifuge the resulting tumor suspension at 1600 rpm for 5 min, aspirate the supernatant, resuspend cells in 1 mL of 1×PBS per tube. Transfer the cell suspension to a 1.5 mL Eppendorf tube, centrifuge at 1600 rpm for 5 min, remove the supernatant, resuspend cells in 100 μL of 1×PBS per tube, add 1 μL of dead/live dye to each tube, mix thoroughly, and incubate at room temperature in the dark for 15 min. […] Position the spleen on a 200-mesh cell strainer. Gently press the spleen using a 10 mL syringe needle. […] Transfer the splenocyte suspension into a 15 mL centrifuge tube. Centrifuge at 1600 rpm for 5 min to collect cells. Wash once with 1×PBS. Add 3 mL red blood cell lysis buffer (diluted with ddH2O) to each tube and incubate for 5 min. After lysis, add 10 mL 1×PBS to each tube to terminate lysis. Centrifuge at 1600 rpm for 5 min. Add 1 mL 1×PBS to each 15 mL centrifuge tube, transfer to 1.5 mL EP tubes, and centrifuge at 1600 rpm for 5 min. Add 1×PBS to each tube containing stained tumor cells and lysed spleen cells for one wash, centrifuge at 1600 rpm for 5 min, and remove the supernatant. Resuspend tumor cells and spleen cells separately in 100 μL 1×PBS. Add 1 μL FcX™ antibody to each tube and incubate at room temperature in the dark for 10 min. After incubation, sequentially add 1 μL each of CD45, CD3, and CD8 antibodies to each tube. Incubate at 4° C. in the dark for 30 min. After staining, wash once with 1 mL PBS. Centrifuge at 1600 rpm for 5 min. Discard the supernatant. Resuspend cells in 300 μL 1×PBS. Filter the cell suspension into a flow cytometry tube and proceed to instrument analysis.

T cells / MDSCs = test: Promotion of T cell proliferation in a co-culture model of MDSCs and T cells; format: cell-based, mouse; details: 1 μM, MDSCs treated 12 hours, co-culture of MDSCs and T cells, compared to the control group
How it was run: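 Bone-marrow MDSCs, after compound treatment, were co-cultured 48 h at 1:1 with CFDA-SE-labelled (10 μM solution), activated splenic T cells. Proliferation of CD3+ T cells was read by flow cytometry.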

MDSCs = test: Proportion of MDSCs in tumor and spleen of H22 xenograft mice (flow cytometry); format: in vivo, BALB/c mice
Method: Once all tumors were dissected, nail-sized tumor pieces were transferred to 1.5 mL Eppendorf tubes and minced with scissors. Transfer the minced tumor tissue suspension to a 15 mL centrifuge tube containing 3-5 mL of digestive enzymes (Collagenase IV 1 mg/mL, Hyaluronidase 1 mg/mL, DNase 120 U/mL). Incubate at 200 rpm and 37° C. for 1 hour. After digestion, pass the mixture through a 200-mesh sieve to obtain the tumor cell suspension. Centrifuge the resulting tumor suspension at 1600 rpm for 5 min, aspirate the supernatant, resuspend cells in 1 mL of 1×PBS per tube. Transfer the cell suspension to a 1.5 mL Eppendorf tube, centrifuge at 1600 rpm for 5 min, remove the supernatant, resuspend cells in 100 μL of 1×PBS per tube, add 1 μL of dead/live dye to each tube, mix thoroughly, and incubate at room temperature in the dark for 15 min. […] Position the spleen on a 200-mesh cell strainer. Gently press the spleen using a 10 mL syringe needle. […] Transfer the washed splenocyte suspension into a 15 mL centrifuge tube. Centrifuge at 1600 rpm for 5 min to collect cells. Wash once with 1×PBS. Add 3 mL red blood cell lysis buffer (diluted with ddH2O) to each tube and incubate for 5 min. After lysis, add 10 mL 1×PBS to each tube to terminate lysis. Centrifuge at 1600 rpm for 5 min. Add 1 mL 1×PBS to each 15 mL centrifuge tube, transfer to 1.5 mL EP tubes, and centrifuge at 1600 rpm for 5 min. Add 1 mL 1×PBS to each tube containing stained tumor cells and lysed spleen cells for one wash, centrifuge at 1600 rpm for 5 min, and remove the supernatant. Resuspend tumor cells and spleen cells separately in 100 μL 1×PBS. Add 1 μL FcX™ antibody to each tube and incubate at room temperature in the dark for 10 min. After incubation, sequentially add 1 μL each of CD45, CD11b, Gr1 antibodies. Incubate at 4° C. in the dark for 30 min. After incubation, wash once with 1×PBS, discard the supernatant, resuspend cells in 300 μL 1×PBS, filter the membrane into a flow cytometry tube, and proceed to instrument analysis.

[2] = system: IgE and inflammatory markers of AD mice; test: MC903-induced atopic dermatitis, oral administration: serum IgE and ear mRNA of inflammatory markers; format: in vivo, mouse; parameters: scale not given here; details: 5 mg/kg
Method: (§1) Except for the Normal group, all other groups underwent AD modeling: 20 μL of MC903 solution (also known as calcipotriol, purchased from Shanghai Yuanye Biotechnology Co., Ltd., used for inducing atopic models) was applied to each mouse's ears once daily for 14 consecutive days to induce the atopic dermatitis model. […] Measure ear thickness changes every 2 days using an electronic caliper before modeling and after treatment initiation.

[3] = system: inflammatory cytokines (IL-1β, IL-6) in lung tissue; test: LPS-induced acute lung injury, inflammatory cytokines by ELISA; format: in vivo, C57BL/6 mice; details: 5 mg/kg; LPS 2411.32
Method: After a 7-day acclimatization period, mice were used for subsequent experiments.
The abdomen was opened, and the lungs were removed. They were rinsed twice with pre-chilled PBS. […] The remaining tissue was stored at −70° C. for future use.
Data Statistics: All data are expressed as means S.E.M. Statistical differences between groups were analyzed using one-way ANOVA and t-tests in SPSS software. P values less than 0.05 were considered statistically significant.

[4] = system: inflammatory factors (TNF, IL-6, IL-1) in renal tissue; test: Lupus nephritis, renal inflammatory factor mRNA; format: in vivo, MRL/lpr mice; details: 3 mg/kg, oral, 8 weeks
Method: Experimental animals: MRI/MpJ and MRL/lpr mice, female, 10 weeks old, purchased from GemPharmatech LLC. Production license number: SCXK(Su)2023-0009. […] They were acclimated for 7 days before use in experiments.
Oral administration was performed continuously for 8 weeks.
Allow blood to stand at room temperature for 2 hours, then centrifuge at 3000 rpm for 20 minutes. Aspirate the serum, aliquot it, and store at −70° C. for future use. After blood collection, euthanize mice by cervical dislocation. Open the abdominal cavity, remove kidneys, and dissect out perirenal fat and capsules. […] Store remaining tissues at −70° C. for future use.

[5] = system: inflammatory factors (TNF, IL-6, IL-1) in renal tissue; test: LPS-induced sepsis, renal inflammatory factor mRNA (Q-PCR); details: 5 mg/kg
Description: (§3) They were acclimated for 7 days before experimentation.
(§4) The normal and model groups received equal volumes of solvent (0.5% CMC-Na) via oral gavage.
(§5) Specimen Collection: One hour after the final drug administration, mice were euthanized by cervical dislocation. The abdominal cavity was opened, and the lungs, liver, and kidneys were removed. These organs were rinsed twice with pre-chilled PBS. Tissue samples were excised from the mouse lungs, left hepatic lobe, and kidneys. […] Remaining tissues were stored at −70° C. for future use.
(§6) Accurately weigh 20 mg of kidney, lung, and liver tissue. Rinse with pre-chilled PBS solution, cut into small pieces using ophthalmic scissors, and place into a glass homogenizer. Add 1 mL of Trizol reagent and grind to prepare tissue homogenate. Transfer the homogenate to a RNAse-free 1.5 mL EP tube and lyse on ice for 10 min. Add 200 μL chloroform, vortex vigorously, and let stand on ice for 3-5 min. Centrifuge at 12,000 rpm and 4° C. for 15 min. Carefully transfer the supernatant to a new RNAse-free 1.5 mL EP tube. Add an equal volume of pre-chilled isopropanol, incubate on ice for 30 min, then centrifuge at 12,000 rpm and 4° C. for 10 min. Discard the supernatant. […] Subsequently, dissolve the pellet in 10 μL DEPC-treated water. Dilute 1 μL of the total RNA solution 100-fold and measure the OD values at 260 nm and 280 nm using a full-wavelength microplate reader.
(§7) Following the method described in the kit manual, subsequent experiments were conducted using a 20 μL reverse transcription reaction system:
(§8) Primers were designed based on the nucleotide sequence of the mouse in GenBank and synthesized.
(§9) Perform subsequent experiments using a 20 μL reaction system according to the kit instructions:
(§10) After adding the above reagents to micro reaction tubes, seal them with the cap and place them in the Q-PCR instrument. Set the parameters according to the following reaction conditions to perform the amplification experiment.
(§11) Record the threshold cycle (Ct) values for each group and perform calculation and analysis using the 2^−ΔΔCt method (setting the expression level of the reference gene Gapdh as 1 to correct the expression levels of the target genes).
(§12) Data Statistics: All data are presented as Means±S.E.M. Analysis of variance (ANOVA) was performed to assess the significance of differences. Groups showing significant differences in ANOVA were further compared using one-way ANOVA and Dunnett's test. A P-value <0.05 was considered statistically significant.

[6] = system: inflammatory cytokines (TNF, IL-6, IL-1) in lung tissue; test: LPS-induced sepsis, lung inflammatory factor mRNA (Q-PCR); details: 5 mg/kg
Description: as §3, §4, §5, §6, §7, §8, §9, §10, §11, §12

[7] = system: inflammatory factors (TNF, IL-6, IL-1) in liver tissue; test: LPS-induced sepsis, hepatic inflammatory factor mRNA (Q-PCR); details: 5 mg/kg
Description: as §3, §4, §5, §6, §7, §8, §9, §10, §11, §12

[8] = system: inflammatory markers in the ears of AD mice; test: MC903-induced atopic dermatitis of the ear, ointment: mRNA of inflammatory markers; format: in vivo, mouse; details: 1% ointment
Method: (§2) Dissolve these substances in a small amount of propylene glycol, then place the resulting solution into the aforementioned pre-cooled blank ointment base. Finally, add water to make the total mass up to 10 g, and grind the mixture thoroughly in a mortar.
as §1

[9] = system: mouse ear atopic dermatitis; test: MC903-induced atopic dermatitis of the ear, ointment: ear thickness, dermatitis score, lesions; format: in vivo; details: 1% ointment, 7 days; max score 12
Method: (1) Preparation of Oil Phase: Weigh white petrolatum, light liquid paraffin, glyceryl monostearate, ethylparaben, and cetyl alcohol. Heat to 65° C. while stirring until dissolved. Slowly add the dissolved active pharmaceutical ingredient (API) while continuing to stir until uniformly mixed. Set aside.
(2) Aqueous Phase Preparation: Weigh purified water and Tween 80, heat to 70° C., stir to dissolve, and set aside;
(3) Emulsification: Slowly add the aqueous phase to the oil phase while maintaining 65° C., homogenize, and continue stirring for 30 min;
(4) Cooling: Stop heating, continue stirring, gradually reduce to room temperature, cool to form an ointment, and fill containers.
as §2, §1
Skin Lesion Severity Score: Daily skin lesion severity was assessed in mice using the following criteria, primarily encompassing four symptoms: 1) erythema/hemorrhage; 2) dryness; 3) desquamation/erosion; 4) edema. Each symptom was scored from 0 to 3 based on lesion severity: no symptoms=0 points, mild=1 point, moderate=2 points, severe=3 points. […] Higher scores indicated more severe lesions, with a maximum score of 12. Statistical analysis was performed on the data.

[10] = 40 μmol/kg/day, oral, 2 weeks, spleen, flow cytometry
[11] = 40 μmol/kg/day, oral, 2 weeks, tumor, flow cytometry
[12] = compared with solvent control, result in words

C=C1C(=O)O[C@H]2[C@H]1CCC(C)=C1CC[C@@](C)(OC(=O)NCCN3CCOCC3)[C@@H]12 [Compound 99]
Tumor Suppression Rate (%) (H22 cells; 40 μmol/kg/day, H22 xenograft): 25.18% | Tumor weight (H22 cells; 40 μmol/kg/day, H22 xenograft): 6.40 ± 1.59 g | tumor-inhibiting effect, H22 (H22 cells; result in words): tumor-inhibiting effects | Tumor inhibition rate (%) (4T1 cells; 40 μmol/kg/day, 4T1): 20.94% | Tumor weight (4T1 cells; 40 μmol/kg/day, 4T1): 1.43 ± 0.19 g | antitumor effect, 4T1 (4T1 cells; result in words): no significant antitumor effects | Tumor Inhibition Rate (Hepa1-6 cells): 80.05% | Tumor weight (Hepa1-6 cells; solvent 0.92 ± 1.41): 0.18 ± 0.40 g | Water-solubility [1]: 220.8 mg/mL | Spleen T cells (%) (T cells; [10]): 31.71 ± 2.95 % | Tumor T cells (%) (T cells; [11]): 22.81 ± 5.33 % | proportion of T cells in tumor tissues and spleens (T cells; [12]): significantly increased | T-cell proliferation rate (%) (T cells / MDSCs): + (T-cell proliferation rate within the 0-20% range compared to the control group) | Spleen MDSCs (%) (MDSCs; [10]): 30.90 ± 10.21 % | Tumor-associated MDSCs (%) (MDSCs; [11]): 34.85 ± 7.99 % | proportion of MDSCs in tumor tissues and spleens (MDSCs; [12]): significantly reduced

C[C@@H]1C[C@H]2[C@@H]3CCC4=CC(=O)C=C[C@]4(C)[C@@]3(F)[C@@H](O)C[C@]2(C)[C@@]1(O)C(=O)CO [Dex, Dexamethasone, reference compound]
I14 mRNA expression, ear [2]: 2.59 ± 0.38 | I113 mRNA expression, ear [2]: 1.89 ± 0.20 | I131 mRNA expression, ear [2]: 2.06 ± 0.20 | IL-1β [3]: 1873.00 ± 86.52 pg/mL | Il1 mRNA expression, kidney [4]: 3.47 ± 0.35 | Il6 mRNA expression, kidney [4]: 1.12 ± 0.24 | Tnf mRNA expression, kidney [4]: 1.94 ± 0.30 | Il1 mRNA expression, kidney ([5]; LPS 7.99): 6.05 ± 1.03 | Il6 mRNA expression, kidney ([5]; LPS 8.80): 5.76 ± 0.72 | Il1 mRNA expression, lung ([6]; LPS 19.01): 7.20 ± 0.36 | Il6 mRNA expression, lung ([6]; LPS 20.34): 9.88 ± 0.80 | Il6 mRNA expression, liver ([7]; LPS 11.34): 4.27 ± 1.33 | Il1 mRNA expression, liver ([7]; LPS 11.52): 7.54 ± 0.70 | I14 mRNA expression, ear [8]: 1.35 ± 0.30 | I113 mRNA expression, ear [8]: 1.91 ± 0.39 | I131 mRNA expression, ear [8]: 1.86 ± 0.44 | Il1 mRNA expression, ear [8]: 12.69 ± 4.22 | TSLP mRNA expression, ear [8]: 1.30 ± 0.17 | Dermatitis Score, ear [9]: 3.50 ± 0.22

— patent US20260315434A1, “USE OF GUAIACOL SESQUITERPENE LACTONE DERIVATIVES” (NANJING UNIVERSITY OF CHINESE MEDICINE, priority 2023, published 2026)
